pIC50: −log10 of the molar value.
Experiments:
Format in all cases: functional, cell-based
[1] = tested on: CCRF-CEM; experiment: Antitumor activity against human CCRF-CEM cells assessed as cell killing activity; conditions: for IC50: read-out: pIC50 (converted); for pIC50: read-out: IC50
[2] = tested on: Raji; experiment: Growth inhibition of human Raji cells measured after 72 hrs by CCK8 assay
[3] = tested on: K562; experiment: Growth inhibition of human K562 cells measured after 72 hrs by CCK8 assay; conditions: K562, 72 h
[4] = tested on: THP-1; experiment: Growth inhibition of human THP-1 cells measured after 72 hrs by CCK8 assay; conditions: THP-1, 72 h
[5] = tested on: TF-1; experiment: Growth inhibition of human TF-1 cells measured after 72 hrs by CCK8 assay; conditions: TF-1, 72 h
[6] = tested on: TF-1; experiment: Antitumor activity against human TF-1 cells assessed as inhibition in cell killing activity
[7] = tested on: THP-1; experiment: Antitumor activity against human THP-1 cells assessed as inhibition in cell killing activity
[8] = tested on: CCRF-CEM; experiment: Growth inhibition of human CCRF-CEM cells measured after 72 hrs by CCK8 assay
[9] = tested on: K562; experiment: Antitumor activity against human K562 cells assessed as inhibition in cell killing activity
[10] = tested on: Raji; experiment: Antitumor activity against human Raji cells assessed as cell killing activity

| pIC50 [2] | SMILES | IC50 [1] [nM] | pIC50 [6] | pIC50 [7] | pIC50 [9] | pIC50 [1] | pIC50 [10] | also measured |
| --- | --- | --- | --- | --- | --- | --- | --- | --- |
| 5.00 | CCOC(=O)/C=C/C=C/C=C/C=C/c1[nH]ccc1Cl | 251 | – | – | – | – | – | pIC50 [3]: < 5.00; pIC50 [4]: 5.92; pIC50 [5]: 6.64 |
| – | CCOC(=O)/C=C/C=C/C=C/C=C/c1ccc[nH]1 | 1260 | 6.60 | 6.11 | – | – | – | – |
| 5.00 | CCOC(=O)/C=C/C=C/C=C/C=C/c1cccn1C | > 10000 | – | – | – | – | – | pIC50 [8]: 5.00 |
| – | CCOC(=O)/C(C)=C/C=C/C=C/C=C/c1ccc[nH]1 | 79.4 | 7.04 | 7.01 | 6.55 | 7.05 | 5.80 | – |
| – | CCOC(=O)/C(C)=C/C=C/c1[nH]ccc1Cl | 7940 | – | – | – | 5.08 | < 5.00 | – |
| – | CCOC(=O)/C(C)=C/C=C/C=C/C=C/c1[nH]ccc1Cl | 63.1 | 7.43 | 6.82 | 5.80 | 7.20 | < 5.00 | – |
| – | CCOC(=O)/C(C)=C/C=C/C=C/c1[nH]ccc1Cl | 251 | – | – | – | 6.64 | < 5.00 | – |
| – | CCOC(=O)/C(C)=C/C=C/C=C/C=C/c1cccn1C | > 10000 | – | – | – | < 5.00 | < 5.00 | – |
| – | COc1cc(/C=C/C=C/C=C/C=C/c2[nH]ccc2Cl)oc(=O)c1 [AUXARCONJUGATIN B] | 501 | 6.36 | 5.89 | 5.31 | – | – | – |

| SMILES | pIC50 [2] | IC50 [1] [nM] | pIC50 [6] | pIC50 [7] | pIC50 [9] | pIC50 [1] | pIC50 [10] | also measured |
| --- | --- | --- | --- | --- | --- | --- | --- | --- |
| COc1cc(\C(C)=C/C=C/C=C/C=C/c2[nH]ccc2Cl)oc(=O)c1C | 5.00 | 1580 | – | – | – | – | – | – |

— ChEMBL document CHEMBL5365491, “Synthesis and anti-tumor activities in human leukemia-derived cells of polyenylpyrroles with a methyl group at the conjugated polyene terminus” (Bioorg Med Chem Lett, 2023)
